Test results published in article PMC3445516 (PLoS ONE, 2012).
Like-named read-outs stand apart in the source and are kept apart here. Blank lines part the entries; values can stand above or below the compound they belong to.

Columns and labels:
Experiment in all cases: Ambit kinase profiling, competition binding
PRKD2 = biological target: T1, PRKD2 (Homo sapiens, UniProt Q9BZL6)
T1 construct: purchased Ambit Biosciences (KINOMEscan)
T1 sequence (Q9BZL6 1-878): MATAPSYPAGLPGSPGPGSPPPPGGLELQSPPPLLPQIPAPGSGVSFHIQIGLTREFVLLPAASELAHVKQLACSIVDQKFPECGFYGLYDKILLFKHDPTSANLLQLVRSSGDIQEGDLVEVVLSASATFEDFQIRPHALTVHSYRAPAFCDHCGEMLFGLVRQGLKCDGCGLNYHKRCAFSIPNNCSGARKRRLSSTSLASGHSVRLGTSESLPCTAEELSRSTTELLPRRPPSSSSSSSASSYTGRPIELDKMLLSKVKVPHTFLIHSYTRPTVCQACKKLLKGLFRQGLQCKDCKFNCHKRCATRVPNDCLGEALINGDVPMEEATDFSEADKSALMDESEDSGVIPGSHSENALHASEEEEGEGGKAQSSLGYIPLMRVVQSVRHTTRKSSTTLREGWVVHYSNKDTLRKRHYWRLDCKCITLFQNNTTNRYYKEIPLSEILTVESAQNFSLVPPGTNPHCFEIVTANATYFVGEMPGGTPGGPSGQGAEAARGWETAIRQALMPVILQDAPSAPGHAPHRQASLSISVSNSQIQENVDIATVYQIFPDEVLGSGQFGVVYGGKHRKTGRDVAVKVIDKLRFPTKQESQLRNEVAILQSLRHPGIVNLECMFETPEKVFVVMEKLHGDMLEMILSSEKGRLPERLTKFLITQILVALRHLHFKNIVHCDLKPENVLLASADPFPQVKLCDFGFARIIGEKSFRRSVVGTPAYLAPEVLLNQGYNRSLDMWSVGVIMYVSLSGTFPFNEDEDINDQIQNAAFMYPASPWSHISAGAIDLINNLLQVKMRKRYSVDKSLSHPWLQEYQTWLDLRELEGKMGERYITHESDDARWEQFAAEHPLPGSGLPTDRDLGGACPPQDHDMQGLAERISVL
Procedure: (§1) Also included in the kinase profile are four isoforms of PKC (δ, ε, η, θ) and eight isoforms of CAMKs (CAMKIα, δ, γ; CAMKIIα, β, δ, γ; CAMK4).
(§2) The global kinase profiling experiment was performed by Ambit Biosciences.

PCTK1 = biological target: T2, PCTK1 (Homo sapiens, UniProt Q00536)
T2 construct: purchased Ambit Biosciences (KINOMEscan)
Procedure: as §1, §2

ERK2 = biological target: T3, ERK2 (Homo sapiens, UniProt P28482)
T3 construct: purchased Ambit Biosciences (KINOMEscan)
Procedure: as §1, §2

EPHA6 = biological target: T4, EPHA6 (Homo sapiens, UniProt Q9UF33)
T4 construct: purchased Ambit Biosciences (KINOMEscan)
T4 sequence (Q9UF33 23-1036): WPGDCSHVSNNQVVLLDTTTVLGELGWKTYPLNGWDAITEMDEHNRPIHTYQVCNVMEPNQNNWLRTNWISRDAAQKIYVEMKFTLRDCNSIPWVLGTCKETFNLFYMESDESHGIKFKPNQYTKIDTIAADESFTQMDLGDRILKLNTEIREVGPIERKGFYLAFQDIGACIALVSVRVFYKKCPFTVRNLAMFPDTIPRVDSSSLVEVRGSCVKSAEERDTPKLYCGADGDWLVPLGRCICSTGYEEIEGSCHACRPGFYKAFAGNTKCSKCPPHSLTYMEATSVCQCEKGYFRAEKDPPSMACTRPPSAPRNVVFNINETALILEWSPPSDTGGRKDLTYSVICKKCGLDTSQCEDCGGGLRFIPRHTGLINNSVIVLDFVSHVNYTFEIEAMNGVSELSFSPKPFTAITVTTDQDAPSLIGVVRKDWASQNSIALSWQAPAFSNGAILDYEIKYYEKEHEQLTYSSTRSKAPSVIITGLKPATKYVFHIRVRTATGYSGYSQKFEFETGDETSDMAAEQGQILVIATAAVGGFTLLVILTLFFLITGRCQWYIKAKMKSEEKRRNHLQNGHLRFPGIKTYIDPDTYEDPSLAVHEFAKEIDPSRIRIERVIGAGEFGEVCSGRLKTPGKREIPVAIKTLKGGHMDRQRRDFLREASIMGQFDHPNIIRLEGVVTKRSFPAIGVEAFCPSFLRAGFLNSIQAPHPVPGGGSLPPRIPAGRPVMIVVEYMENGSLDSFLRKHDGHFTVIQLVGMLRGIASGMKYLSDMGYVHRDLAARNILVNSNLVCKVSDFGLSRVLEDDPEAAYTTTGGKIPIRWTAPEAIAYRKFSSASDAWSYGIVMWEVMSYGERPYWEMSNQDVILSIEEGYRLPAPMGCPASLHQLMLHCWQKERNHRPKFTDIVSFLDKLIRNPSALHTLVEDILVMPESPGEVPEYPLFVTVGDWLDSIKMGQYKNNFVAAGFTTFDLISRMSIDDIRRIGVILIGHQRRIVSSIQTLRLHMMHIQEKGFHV
Procedure: as §1, §2

DDR1 = biological target: T5, DDR1 (Homo sapiens, UniProt Q08345)
T5 construct: purchased Ambit Biosciences (KINOMEscan)
Procedure: as §1, §2

EGFR(G719S) = biological target: T6, EGFR(G719S) (Homo sapiens, UniProt P00533, G719S); settings: for % Competition: 10 µM
T6 construct: purchased Ambit Biosciences (KINOMEscan)
Procedure: as §1, §2

DMPK2 = biological target: T7, DMPK2 (Homo sapiens, UniProt Q6DT37)
T7 construct: purchased Ambit Biosciences (KINOMEscan)
Procedure: as §1, §2

PCTK3 = biological target: T8, PCTK3 (Homo sapiens, UniProt Q07002)
T8 construct: purchased Ambit Biosciences (KINOMEscan)
Procedure: as §1, §2

T3 sequence (P28482 whole entry): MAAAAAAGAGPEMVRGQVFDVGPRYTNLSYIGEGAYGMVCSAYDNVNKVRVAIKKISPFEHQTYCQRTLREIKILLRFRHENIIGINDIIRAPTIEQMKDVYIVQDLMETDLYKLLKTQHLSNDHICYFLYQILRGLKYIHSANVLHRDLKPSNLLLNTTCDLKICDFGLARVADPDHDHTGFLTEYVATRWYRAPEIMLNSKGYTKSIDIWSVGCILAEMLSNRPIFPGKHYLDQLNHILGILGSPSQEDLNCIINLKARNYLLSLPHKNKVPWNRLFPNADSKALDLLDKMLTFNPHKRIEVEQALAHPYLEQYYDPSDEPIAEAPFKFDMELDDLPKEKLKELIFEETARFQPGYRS
T2 sequence (Q00536 whole entry): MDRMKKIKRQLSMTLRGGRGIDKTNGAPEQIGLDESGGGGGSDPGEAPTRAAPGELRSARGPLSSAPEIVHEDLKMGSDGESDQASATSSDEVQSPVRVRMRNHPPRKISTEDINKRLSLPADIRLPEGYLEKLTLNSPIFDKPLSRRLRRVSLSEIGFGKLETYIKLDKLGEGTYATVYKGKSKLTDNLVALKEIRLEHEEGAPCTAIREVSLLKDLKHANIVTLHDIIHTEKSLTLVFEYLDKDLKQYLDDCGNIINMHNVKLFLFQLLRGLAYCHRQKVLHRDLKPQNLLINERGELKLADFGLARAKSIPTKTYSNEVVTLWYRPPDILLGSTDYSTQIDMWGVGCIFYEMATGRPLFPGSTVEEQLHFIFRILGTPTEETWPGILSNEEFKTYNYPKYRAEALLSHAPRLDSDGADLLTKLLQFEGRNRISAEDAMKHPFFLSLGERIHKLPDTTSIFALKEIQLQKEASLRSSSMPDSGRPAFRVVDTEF
T8 sequence (Q07002 whole entry): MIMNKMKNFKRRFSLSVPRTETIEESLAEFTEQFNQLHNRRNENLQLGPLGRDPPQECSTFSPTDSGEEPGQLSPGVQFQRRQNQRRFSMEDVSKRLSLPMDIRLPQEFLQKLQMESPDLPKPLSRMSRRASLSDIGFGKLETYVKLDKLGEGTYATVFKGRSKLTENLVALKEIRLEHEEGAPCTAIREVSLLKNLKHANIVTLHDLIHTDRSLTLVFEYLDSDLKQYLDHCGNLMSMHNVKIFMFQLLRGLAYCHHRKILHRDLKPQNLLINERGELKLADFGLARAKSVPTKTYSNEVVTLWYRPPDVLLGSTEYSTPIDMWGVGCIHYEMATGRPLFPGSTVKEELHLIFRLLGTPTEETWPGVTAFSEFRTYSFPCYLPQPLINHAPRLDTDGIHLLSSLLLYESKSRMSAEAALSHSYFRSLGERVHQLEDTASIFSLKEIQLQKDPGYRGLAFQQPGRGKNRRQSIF
T5 sequence (Q08345 19-913): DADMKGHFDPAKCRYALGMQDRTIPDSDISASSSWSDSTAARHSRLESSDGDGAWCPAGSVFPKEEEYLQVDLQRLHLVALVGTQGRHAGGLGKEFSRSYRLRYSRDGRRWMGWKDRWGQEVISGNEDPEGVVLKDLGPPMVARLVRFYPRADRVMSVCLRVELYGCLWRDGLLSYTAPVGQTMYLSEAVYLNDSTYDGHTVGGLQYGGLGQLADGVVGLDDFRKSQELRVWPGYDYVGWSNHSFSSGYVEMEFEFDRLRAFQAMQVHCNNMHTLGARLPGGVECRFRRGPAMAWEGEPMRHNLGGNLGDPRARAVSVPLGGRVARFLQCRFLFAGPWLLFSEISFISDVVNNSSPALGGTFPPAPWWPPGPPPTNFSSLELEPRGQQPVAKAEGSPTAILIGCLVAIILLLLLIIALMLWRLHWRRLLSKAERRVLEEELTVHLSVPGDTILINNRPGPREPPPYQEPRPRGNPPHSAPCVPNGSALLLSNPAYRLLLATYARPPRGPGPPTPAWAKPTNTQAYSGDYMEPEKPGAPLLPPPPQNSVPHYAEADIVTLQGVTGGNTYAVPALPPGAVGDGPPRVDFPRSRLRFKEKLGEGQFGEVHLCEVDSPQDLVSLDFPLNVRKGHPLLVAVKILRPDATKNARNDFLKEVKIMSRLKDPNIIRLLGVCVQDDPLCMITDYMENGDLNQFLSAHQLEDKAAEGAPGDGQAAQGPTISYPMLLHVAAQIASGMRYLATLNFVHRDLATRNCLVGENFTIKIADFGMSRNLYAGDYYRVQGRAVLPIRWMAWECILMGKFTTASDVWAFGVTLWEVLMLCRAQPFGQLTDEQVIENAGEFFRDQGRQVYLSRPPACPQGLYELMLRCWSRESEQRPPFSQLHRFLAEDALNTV
T7 sequence (Q6DT37 whole entry): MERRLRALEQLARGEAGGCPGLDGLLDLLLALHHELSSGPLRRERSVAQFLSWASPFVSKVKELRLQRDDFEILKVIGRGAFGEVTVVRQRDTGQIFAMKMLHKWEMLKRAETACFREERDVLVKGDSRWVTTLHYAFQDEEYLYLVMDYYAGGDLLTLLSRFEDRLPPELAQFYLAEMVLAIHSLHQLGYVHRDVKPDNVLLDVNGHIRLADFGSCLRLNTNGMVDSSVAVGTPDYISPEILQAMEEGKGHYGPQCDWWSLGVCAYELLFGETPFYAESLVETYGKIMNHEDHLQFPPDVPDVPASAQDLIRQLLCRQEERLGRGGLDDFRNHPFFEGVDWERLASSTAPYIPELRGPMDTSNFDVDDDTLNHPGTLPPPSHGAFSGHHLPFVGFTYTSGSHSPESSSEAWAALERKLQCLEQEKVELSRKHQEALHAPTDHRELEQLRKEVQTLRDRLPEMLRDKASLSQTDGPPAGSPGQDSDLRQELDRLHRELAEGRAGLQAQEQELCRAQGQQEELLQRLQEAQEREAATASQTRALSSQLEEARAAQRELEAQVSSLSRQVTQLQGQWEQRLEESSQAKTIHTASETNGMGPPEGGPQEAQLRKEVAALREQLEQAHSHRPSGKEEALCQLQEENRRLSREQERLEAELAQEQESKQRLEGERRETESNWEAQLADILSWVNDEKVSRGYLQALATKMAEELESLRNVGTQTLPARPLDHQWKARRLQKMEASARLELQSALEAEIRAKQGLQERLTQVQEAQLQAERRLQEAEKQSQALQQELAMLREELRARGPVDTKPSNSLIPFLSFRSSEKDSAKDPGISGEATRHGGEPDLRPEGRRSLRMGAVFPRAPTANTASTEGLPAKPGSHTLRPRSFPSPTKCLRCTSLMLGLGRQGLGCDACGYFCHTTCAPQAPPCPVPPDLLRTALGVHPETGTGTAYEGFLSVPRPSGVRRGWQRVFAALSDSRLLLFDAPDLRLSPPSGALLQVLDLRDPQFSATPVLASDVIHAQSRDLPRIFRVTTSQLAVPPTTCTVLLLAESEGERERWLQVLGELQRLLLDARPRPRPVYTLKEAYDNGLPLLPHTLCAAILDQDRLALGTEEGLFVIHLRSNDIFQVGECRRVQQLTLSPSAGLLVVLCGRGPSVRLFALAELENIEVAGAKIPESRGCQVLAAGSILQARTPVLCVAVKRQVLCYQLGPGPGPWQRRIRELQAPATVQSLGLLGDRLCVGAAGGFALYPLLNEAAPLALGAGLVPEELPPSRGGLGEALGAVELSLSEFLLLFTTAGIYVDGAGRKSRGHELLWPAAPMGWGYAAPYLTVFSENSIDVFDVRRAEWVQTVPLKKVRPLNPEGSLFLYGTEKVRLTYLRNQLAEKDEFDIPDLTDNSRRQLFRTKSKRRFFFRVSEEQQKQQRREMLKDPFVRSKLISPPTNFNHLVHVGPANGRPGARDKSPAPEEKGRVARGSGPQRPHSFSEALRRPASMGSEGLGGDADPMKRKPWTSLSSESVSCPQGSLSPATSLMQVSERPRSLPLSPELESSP

- inhibition at 10 µM (PRKD2; PRKD2 (PKD2), 10 µM, read-out: % Competition): 98%
- inhibition at 10 µM (PCTK1; PCTK1, 10 µM, read-out: % Competition): 100%
- inhibition at 10 µM (ERK2; ERK2, 10 µM, read-out: % Competition): 87%
- inhibition at 10 µM (EPHA6; EPHA6, 10 µM, read-out: % Competition): 93%
- inhibition at 10 µM (DDR1; DDR1, 10 µM, read-out: % Competition): 100%
- % Competition (EGFR(G719S)): 96%
- inhibition at 10 µM (DMPK2; DMPK2, 10 µM, read-out: % Competition): 100%
- inhibition at 10 µM (PCTK3; PCTK3, 10 µM, read-out: % Competition): 77%
Compound: Fc1ccc(-c2c(-c3ccncc3)[nH]c3nccnc23)cc1 [Compound 122]

Compound: CC(O)CNc1cc(-c2[nH]c3cccnc3c2-c2ccc(F)cc2)ccn1 (stereo not drawn) [Compound 140]
- inhibition at 10 µM (PRKD2; read-out: % Competition): 99%
- inhibition at 10 µM (PCTK1; read-out: % Competition): < 50%
- inhibition at 10 µM (ERK2; read-out: % Competition): < 50%
- inhibition at 10 µM (EPHA6; read-out: % Competition): < 50%
- inhibition at 10 µM (DDR1; read-out: % Competition): 98%
- % Competition (EGFR(G719S)): 70%
- inhibition at 10 µM (DMPK2; read-out: % Competition): 74%
- inhibition at 10 µM (PCTK3; read-out: % Competition): < 50%

- inhibition at 10 µM (PRKD2; PRKD2, compound concentration 10 uM, read-out: Percent Competition): 98%
- inhibition at 10 µM (PCTK1; PCTK1, compound concentration 10 uM, read-out: Percent Competition): 100%
- inhibition at 10 µM (ERK2; ERK2, compound concentration 10 uM, read-out: Percent Competition): 87%
- inhibition at 10 µM (EPHA6; EPHA6, compound concentration 10 uM, read-out: Percent Competition): 93%
- inhibition at 10 µM (DDR1; DDR1, compound concentration 10 uM, read-out: Percent Competition): 100%
- Percent Competition (EGFR(G719S); compound concentration 10 uM): 96%
- inhibition at 10 µM (DMPK2; DMPK2, compound concentration 10 uM, read-out: Percent Competition): 100%
- inhibition at 10 µM (PCTK3; PCTK3, compound concentration 10 uM, read-out: Percent Competition): 77%
Compound: Fc1ccc(-c2c(-c3ccncc3)[nH]c3nccnc23)cc1 [RO1155697-000-005]
